From US8779156B2, “Analogues for the treatment or prevention of flavivirus infections” (Vertex Pharmaceuticals Incorporated, priority 2010, dated 2014)
pEC50: −log10 of the molar value.

Tests used:
[1] = system: sub-genomic HCV replicon of genotype 1a (cell line W11.8); test: Activity determination using the ELISA and the sub-genomic replicon 1a cell line (NS5A protein level); format: cell-based; details: Hepatitis C virus
Description: Activity Determination Using the ELISA and the Sub-Genomic Replicon 1a Cell Line
The cell line W11.8 containing the sub-genomic HCV replicon of genotype 1a is used to determine the potency of the drugs. The RNA replication in presence of different drug concentrations is indirectly measured in this cell line by the level of NS5A protein content upon drug treatment for four days. It is shown that the level of the NS5A protein correlates well with the level of HCV RNA in the replicon cell line. Cells are split twice a week in order to keep the confluence state below 85% of the culture flask surface area. The culture media used for cell passaging consists of DMEM-10% foetal bovine serum with 100 UI/mL penicillin, 100 μg/mL streptomycin, 2 mM glutamine, 1 mM sodium pyruvate, non-essential amino acids (1×) and 600 μg/mL of G418 final concentrations. Monolayer of the W11.8 cells is trypsinized and cells are counted. Cells are diluted at 50,000 cells/mL with complete DMEM without G418, then approximately 5,000 viable cells (100 μL) are plated per well in a white opaque 96-well microtiter plate. After an incubation period of 2-4 hours at 37° C. in a 5% CO2 incubator, compounds are added at various concentrations. Drugs are resuspended in DMSO at a stock concentration of 10 mM. Then, drugs are serially diluted at twice the final concentration in the same medium. One volume (100 μL) of each drug dilution is then added to each well that contains cells. A control compound is used as an internal standard for each plate assay. Sixteen wells are used as control (0% inhibition) without drug. […] Values from 100% inhibited wells were averaged and used as the background value. Cells are further incubated for four days at 37° C. in a 5% CO2 incubator. Following the incubation time of four days, the media is removed and wells are washed once with 150 μL of PBS at room temperature for five minutes. Cells are then fixed for five minutes using 150 μL per well of cold (−20° C.) fixative solution (50% methanol/50% acetone mix). Cells are then washed twice with 150 μL of PBS (phosphate buffered saline) per well, following the addition of 150 μL of blocking solution, cells are incubated for one hour at 37° C. to block non-specific sites. The blocking solution is removed and cells are washed twice with 150 μL of PBS per well and once with 150 μL of PBSTS solution (PBS/0.1% Triton X-100/0.02% SDS) per well. […] Then, substrate solution (100 μl, SuperSignal ELISA Pico Chemiluminescent Substrate, Fisher Cat. No. 37069) is added in each well and plates are incubated 60 minutes at room temperature prior to reading the luminescence (relative light units) on the Analyst HT plate reader. The percentage of inhibition at each drug concentration tested (in duplicate) is calculated.

[2] = system: HCV (1b) replicon, Huh-ET cells; test: Cell-based luciferase reporter HCV (1b) RNA replication assay; details: Hepatitis C virus; for pEC50: 96 h, HCV 1b replicon, luciferase, 4 days incubation, read-out: EC50_1b
Description: Cell-Based Luciferase Reporter HCV (Ib) RNA Replication Assay Cell Culture
Replicon cell lines Huh-5.2 are derived from the Huh-7 hepatocarcinoma cell line are maintained in culture as generally described in Krieger, N; Lohmann, V; Bartenschlager, R. Enhancement of hepatitis C virus RNA replication by cell culture-adaptive mutations. J. Virol. 2001, 75, 4614-4624. The Huh-5.2 cells contain the highly cell culture-adapted replicon I389luc-ubi-neo/NS3-375.1 construct that carries, in addition to the neomycin gene, an integrated copy to the firefly luciferase gene (Krieger, N; Lohmann, V; Bartenschlager, R. Enhancement of hepatitis C virus RNA replication by cell culture-adaptive mutations. J. Virol. 2001, 75, 4614-4624). This cell line allows measurement of HCV RNA replication and translation by measuring luciferase activity. It has been previously shown that the luciferase activity tightly follows the replicon RNA level in these cells (Krieger, N; Lohmann, V; Bartenschlager, R. Enhancement of hepatitis C virus RNA replication by cell culture-adaptive mutations. J. Virol. 2001, 75, 4614-4624). The Huh-ET cell line has the same features as those mentioned for Huh-5.2 cell line, except that ET cells are more robust and contain an adaptative mutation in the HCV NS4B gene instead of NS5A. Both cell lines are maintained in cultures at a sub-confluent level (<85%) as the level of replicon RNA is highest in actively proliferating cells. The culture media used for cell passaging consist of DMEM (Gibco BRL Laboratories, Mississauga, ON, Canada) supplemented with 10% foetal bovine serum with 1% penicilin/streptomycin, 1% glutamine, 1% sodium pyruvate, 1% non-essential amino acids, and 180 μg/ml of G418 final concentration. Cells are incubated at 37° C., in an atmosphere of 5% CO2 and passaged twice a week to maintain sub-confluence.
Approximately 3000 viable Huh-ET cells (100 μl) are plated per well in a white opaque 96-well microtiter plate. The cell culture media used for the assay is the same as described above except that it contains no G418 and no phenol red. After an incubation period of 3-4 hours at 37° C. in a 5% CO2 incubator, compounds (100 μl) are added at various concentrations. Cells are then further incubated for 4 days at 37° C. in a 5% CO2 incubator. Thereafter, the culture media is removed and cells are lysed by the addition of 95 μL of the luciferase buffer (luciferin substrate in buffered detergent). Cell lysates are incubated at room temperature and protected from direct light for at least 10 minutes. Plates are read for luciferase counts using a luminometer (Wallac MicroBeta Trilux, Perkin Elmer™, MA, USA).
Curves are fitted to data points using nonlinear regression analysis, and IC50s are interpolated from the resulting curve using GraphPad Prism software, version 2.0 (GraphPad Software Inc., San Diego, Calif., USA).

COC(=O)N[C@H](C(=O)N1CCC[C@H]1c1ncc(-c2ccc(-c3ccc(-c4ccc5[nH]c([C@@H]6CCCN6C(=O)[C@@H](NC(=O)OC)C(C)C)nc5c4)cc3)cc2)[nH]1)C(C)C [Compound 4, ((S)-1-{(S)-2-[5-(4′-{2-[(S)-1-((S)-2-Methoxycarbonylamino-3-methyl-butyryl)-pyrrolidin-2-yl]-3H-benzoimidazol-5-yl}-biphenyl-4-yl)-1H-imidazol-2-yl]-pyrrolidine-1-carbonyl}-2-methyl-propyl)-carbamic acid methyl ester]
IC50 [1]: 140 pM
pEC50 [2]: ≥ 8.30
IC50 ([2]; sub-genomic replicon 1b cell line): 13 pM

COC(=O)N[C@H](C(=O)N1C[C@@H](C)C[C@H]1c1nc(-c2ccc(-c3ccc(-c4cc(C)c5[nH]c([C@@H]6C[C@H](C)CN6C(=O)[C@@H](NC(=O)OC)C(C)C)nc5c4)cc3)cc2)c[nH]1)C(C)C [Compound 28]
pEC50 [2]: ≥ 8.30

COC(=O)N[C@H](C(=O)N1C[C@@H](C)CC1c1nc2cc(C#Cc3ccc(C#Cc4cnc([C@@H]5C[C@H](C)CN5C(=O)[C@@H](NC(=O)OC)C(C)C)[nH]4)cc3)ccc2[nH]1)C(C)C (some centres unmarked) [Compound 29]
pEC50 [2]: ≥ 8.30

COC(=O)N[C@H](C(=O)N1C[C@@H](C)C[C@H]1c1nc(-c2ccc(-c3ccc(-c4ccc5[nH]c([C@@H]6C[C@H](C)CN6C(=O)[C@@H](NC(=O)OC)C(C)C)nc5c4)c4c3OCO4)cc2)c[nH]1)C(C)C [Compound 30]
pEC50 [2]: ≥ 8.30

COC(=O)N[C@H](C(=O)N1C[C@@H](C)C[C@H]1c1ncc(-c2ccc(-c3ccc(-c4ccc5[nH]c([C@@H]6C[C@H](C)CN6C(=O)[C@@H](NC(=O)OC)C(C)C)nc5c4)c(C)c3)cc2C)[nH]1)C(C)C [Compound 31]
pEC50 [2]: ≥ 8.30

COC(=O)N[C@H](C(=O)N1C[C@@H](C)C[C@H]1c1nc(-c2ccc(-c3ccc(-c4cc(F)c5[nH]c([C@@H]6C[C@H](C)CN6C(=O)[C@@H](NC(=O)OC)C(C)C)nc5c4)cc3)cc2)c[nH]1)C(C)C [Compound 32]
pEC50 [2]: ≥ 8.30

COC(=O)N[C@H](C(=O)N1C[C@@H](C)C[C@H]1c1nc(-c2ccc3sc(-c4ccc5[nH]c([C@@H]6C[C@H](C)CN6C(=O)[C@@H](NC(=O)OC)C(C)C)nc5c4)cc3c2)c[nH]1)C(C)C [Compound 33]
pEC50 [2]: ≥ 8.30

COC(=O)N[C@H](C(=O)N1C[C@@H](C)C[C@H]1c1nc(-c2ccc3nc(-c4ccc5[nH]c([C@@H]6C[C@H](C)CN6C(=O)[C@@H](NC(=O)OC)C(C)C)nc5c4)ccc3c2)c[nH]1)C(C)C [Compound 34]
pEC50 [2]: ≥ 8.30

COC(=O)N[C@H](C(=O)N1C[C@@H](C)C[C@H]1c1nc(-c2ccc(-c3ccc(-c4cc5nc([C@@H]6C[C@H](C)CN6C(=O)[C@@H](NC(=O)OC)C(C)C)[nH]c5cc4C)cc3)cc2)c[nH]1)C(C)C [Compound 35]
pEC50 [2]: ≥ 8.30

COC(=O)N[C@H](C(=O)N1C[C@@H](C)C[C@H]1c1nc(-c2ccc(-c3ccc(-c4ccc5[nH]c([C@@H]6C[C@H](C)CN6C(=O)[C@@H](NC(=O)OC)C(C)C)nc5c4)cc3F)cc2)c[nH]1)C(C)C [Compound 39]
pEC50 [2]: ≥ 8.30

COC(=O)N[C@H](C(=O)N1C[C@@H](C)C[C@H]1c1nc(-c2cc3sc(-c4ccc5[nH]c([C@@H]6C[C@H](C)CN6C(=O)[C@H](C(C)C)N6CCOC6=O)nc5c4)cc3s2)c[nH]1)C(C)C [Compound 40]
pEC50 [2]: ≥ 8.30

COC(=O)N[C@H](C(=O)N1C[C@@H](C)C[C@H]1c1nc(-c2ccc3cc(-c4ccc5[nH]c([C@@H]6C[C@H](C)CN6C(=O)[C@@H](NC(=O)OC)C(C)C)nc5c4)sc3c2)c[nH]1)C(C)C [Compound 41]
pEC50 [2]: ≥ 8.30

COC(=O)N[C@H](C(=O)N1C[C@@H](C)CC1c1nc2cc(-c3ccc4nc(-c5c[nH]c([C@@H]6C[C@H](C)CN6C(=O)[C@@H](NC(=O)OC)C(C)C)n5)cn4c3)ccc2[nH]1)C(C)C (some centres unmarked) [Compound 42]
pEC50 [2]: 5.30 to 8.30

COC(=O)N[C@H](C(=O)N1C[C@@H](C)C[C@H]1c1nc(-c2cc3cc(-c4ccc5[nH]c([C@@H]6C[C@H](C)CN6C(=O)[C@@H](NC(=O)OC)C(C)C)nc5c4)sc3s2)c[nH]1)C(C)C [Compound 43]
pEC50 [2]: ≥ 8.30

COC(=O)N[C@H](C(=O)N1C[C@@H](C)C[C@H]1c1nc(C#Cc2cc3sc(-c4ccc5[nH]c([C@@H]6C[C@H](C)CN6C(=O)[C@@H](NC(=O)OC)C(C)C)nc5c4)cc3s2)c[nH]1)C(C)C [Compound 44]
pEC50 [2]: ≥ 8.30

COC(=O)NC(C(=O)N1C[C@@H](C)C[C@H]1c1nc2cc(C#Cc3cc4sc(-c5c[nH]c([C@@H]6C[C@H](C)CN6C(=O)[C@@H](NC(=O)OC)C(C)C)n5)cc4s3)ccc2[nH]1)C(C)C (some centres unmarked) [Compound 45]
pEC50 [2]: ≥ 8.30

COC(=O)N[C@H](C(=O)N1C[C@H](C)C[C@H]1c1nc(-c2ccc(-c3ccc(-c4ccc5[nH]c([C@@H]6C[C@H](C)CN6C(=O)[C@@H](NC(=O)OC)C(C)C)nc5c4)cc3)cc2)c[nH]1)C(C)C [Compound 47]
pEC50 [2]: ≥ 8.30

COC(=O)N[C@H](C(=O)N1C[C@@H](C)C[C@H]1c1nc2cc(-c3ccc(-c4ccc(-c5c[nH]c([C@@H]6C[C@H](C)CN6)n5)cc4)cc3)ccc2[nH]1)C(C)C [Compound 51]
pEC50 [2]: ≥ 8.30

[2H]c1c([2H])c(-c2ccc3[nH]c([C@@H]4C[C@H](C)CN4C(=O)[C@@H](NC(=O)OC)C(C)C)nc3c2)c([2H])c([2H])c1-c1ccc(-c2c[nH]c([C@@H]3C[C@H](C)CN3C(=O)[C@@H](NC(=O)OC)C(C)C)n2)cc1 [Compound 52]
pEC50 [2]: ≥ 8.30

COC(=O)N[C@H](C(=O)N[C@H](C(=O)N1C[C@@H](C)C[C@H]1c1nc(-c2ccc(-c3ccc(-c4ccc5[nH]c([C@@H]6C[C@H](C)CN6C(=O)[C@@H](NC(=O)OC)C(C)C)nc5c4)cc3)cc2)c[nH]1)C(C)C)C(C)C [Compound 55]
pEC50 [2]: ≥ 8.30

COC(=O)N[C@H](C(=O)N[C@H](C(=O)N1C[C@@H](C)C[C@H]1c1nc2cc(-c3ccc(-c4ccc(-c5c[nH]c([C@@H]6C[C@H](C)CN6C(=O)[C@@H](NC(=O)OC)C(C)C)n5)cc4)cc3)ccc2[nH]1)C(C)C)C(C)C [Compound 56]
pEC50 [2]: ≥ 8.30
